Laboratory results from patent US11766403B2, “Peptide-targeted liposomal delivery for treatment, diagnosis, and imaging of diseases and disorders” (University of Maryland, Baltimore, priority 2019, dated 2023).
Where no end group is shown, it is not given here.

Experiments:
[1] = test system: human umbilical vein endothelial cells (HUVEC); test: Binding of FITC-labeled ART-2 peptide to endothelial cells in vitro; format: cell-based; conditions: 2 h
Experimental: (§1) FIG. 4, comprising FIG. 4A through FIG. 4D, depicts in vitro and in vivo binding of ART-2 peptides. FIG. 4A depicts the binding of fluorescein isothiocyanate (FITC)-labeled ART-2 peptide to human umbilical vein endothelial cells (HUVEC) in vitro (HUVEC were treated with ART-2-FITC peptides for 2 h at the indicated concentrations). A representative histogram is shown. FIG. 4B depicts HUVEC that were stained with ART-2-FITC peptide at 0.5 μM concentration, PE-labeled CD31 (a marker for endothelial cells), and DAPI (for nucleus staining) and examined under a fluorescence microscope. FIG. 4C depicts in vivo distribution of Cyanine 7 (Cy7)-labeled ART-2 peptide: real-time fluorescence imaging of arthritic rats at 4 h time point after i.v. injection of the peptide following the procedure described in the legend to FIG. 7. FIG. 4D depicts images of ex-vivo fluorescence of different organs harvested from arthritic rats at 4 h after i.v. injection of ART-2-Cy7-peptide.

[2] = test system: rat arthritic joints; test: In vivo distribution of Cy7-labeled ART-2 peptide (homing to arthritic joints); conditions: i.v., arthritic rats, 4 h
Experimental: as §1

For “CKPFDRALC (not fully specified; cysteine pairing not given here) [ART-2, novel tissue-targeting peptide]”, the “binding of peptide to endothelial cells” value [1] was “avid binding to endothelial cells” and the “homing to arthritic joints” value [2] was “preferential homing to rat arthritic joints”.
